Among the data in patent US9156877B2, “17-hydroxy-17-pentafluorethyl-estra-4,9(10)-dien-11-benzylidene derivatives, methods for the production thereof and use thereof for treating diseases” (Bayer Intellectual Property GmbH, priority 2009, dated 2015) are IC50 values, retold here.

Test [1] has as its target T1, human progesterone receptor B (Homo sapiens, UniProt P06401).
T1 construct: expressed in transfected cells; host or cells: SK-N-MC human neuroblastoma cells, stably transfected with pRChPR-B-neo and pMMTV-LUC
T1 sequence (P06401 1-933): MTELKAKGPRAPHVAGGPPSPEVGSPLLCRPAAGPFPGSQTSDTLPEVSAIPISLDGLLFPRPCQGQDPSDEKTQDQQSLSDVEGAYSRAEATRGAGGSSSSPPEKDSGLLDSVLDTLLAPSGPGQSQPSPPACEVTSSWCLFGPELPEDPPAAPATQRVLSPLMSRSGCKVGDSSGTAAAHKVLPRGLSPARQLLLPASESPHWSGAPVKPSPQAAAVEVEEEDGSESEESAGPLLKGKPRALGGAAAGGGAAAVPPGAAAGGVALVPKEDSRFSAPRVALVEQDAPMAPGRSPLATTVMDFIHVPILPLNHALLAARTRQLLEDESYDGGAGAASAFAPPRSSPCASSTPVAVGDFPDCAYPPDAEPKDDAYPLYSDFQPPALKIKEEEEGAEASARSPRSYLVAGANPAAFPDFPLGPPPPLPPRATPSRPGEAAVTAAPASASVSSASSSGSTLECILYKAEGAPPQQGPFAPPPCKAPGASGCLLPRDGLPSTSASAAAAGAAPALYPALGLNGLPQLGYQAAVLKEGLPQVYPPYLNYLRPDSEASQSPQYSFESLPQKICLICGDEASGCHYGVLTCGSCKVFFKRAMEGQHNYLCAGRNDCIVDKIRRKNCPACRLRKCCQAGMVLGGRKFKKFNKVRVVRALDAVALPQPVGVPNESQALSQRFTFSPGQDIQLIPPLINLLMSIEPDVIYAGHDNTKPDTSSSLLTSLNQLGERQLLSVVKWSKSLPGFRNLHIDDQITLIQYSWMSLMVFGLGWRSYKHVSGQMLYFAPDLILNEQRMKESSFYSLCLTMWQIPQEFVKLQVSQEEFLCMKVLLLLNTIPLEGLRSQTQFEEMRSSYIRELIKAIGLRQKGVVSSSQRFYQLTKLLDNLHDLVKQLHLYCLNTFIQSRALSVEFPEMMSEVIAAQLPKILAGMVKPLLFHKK
Nature of the test: Progesterone receptor-antagonistic action in stably transfected SK-N-MC cells with MMTV-LUC reporter (PR-B). The class given is cell-based. As to conditions: antagonistic potency against 0.1 nmol/l promegestone, 24 hours, luciferase. As to the method: (§1) Determination of Progesterone Receptor-Antagonistic Action in Stable Transfectants of Human Neuroblastoma Cells (SK-N-MC Cells) with the Human Progesterone A or Progesterone B Receptor and an MN-LUC Reporter Construct
(§2) SK-N-MC cells (human neuroblastoma cells) which have been stably transfected with plasmids expressing the human progesterone receptor B (pRChPR-B-neo) or the human progesterone receptor A (pRChPR-A-neo) and a reporter construct (pMMTV-LUC) were incubated for 24 hours either in the absence (negative control) or in the presence of ascending amounts of the particular test compound (0.01 nmol/l, 0.1 nmol/l, 1 nmol/l, 10 nmol/l, 100 nmol/l and […]), in order to determine the agonistic efficacy. As a positive control of the reporter gene induction, the cells were treated with the synthetic gestagen promegestone (0.01 nmol/l, 0.1 nmol/l, 1 nmol/l, 10 nmol/l, 100 nmol/l and […]). To determine the antagonistic activity, the cells were treated with 0.1 nmol/l promegestone and additionally with ascending amounts of the particular test compound (0.01 nmol/l, 0.1 nmol/l, 1 nmol/l, 10 nmol/l, 100 nmol/l and […]). The activity of the reporter gene LUC (LUC=luciferase) was determined in the cell lysates and measured as RLU (relative light units). All measurements are reported as % efficacy and as EC50 and IC50 concentrations.

For test [2], the target named is T2, human progesterone receptor A (Homo sapiens, UniProt P06401).
T2 construct: expressed in transfected cells; host or cells: SK-N-MC human neuroblastoma cells, stably transfected with pRChPR-A-neo and pMMTV-LUC
T2 sequence (P06401 1-769 isoform P06401-2): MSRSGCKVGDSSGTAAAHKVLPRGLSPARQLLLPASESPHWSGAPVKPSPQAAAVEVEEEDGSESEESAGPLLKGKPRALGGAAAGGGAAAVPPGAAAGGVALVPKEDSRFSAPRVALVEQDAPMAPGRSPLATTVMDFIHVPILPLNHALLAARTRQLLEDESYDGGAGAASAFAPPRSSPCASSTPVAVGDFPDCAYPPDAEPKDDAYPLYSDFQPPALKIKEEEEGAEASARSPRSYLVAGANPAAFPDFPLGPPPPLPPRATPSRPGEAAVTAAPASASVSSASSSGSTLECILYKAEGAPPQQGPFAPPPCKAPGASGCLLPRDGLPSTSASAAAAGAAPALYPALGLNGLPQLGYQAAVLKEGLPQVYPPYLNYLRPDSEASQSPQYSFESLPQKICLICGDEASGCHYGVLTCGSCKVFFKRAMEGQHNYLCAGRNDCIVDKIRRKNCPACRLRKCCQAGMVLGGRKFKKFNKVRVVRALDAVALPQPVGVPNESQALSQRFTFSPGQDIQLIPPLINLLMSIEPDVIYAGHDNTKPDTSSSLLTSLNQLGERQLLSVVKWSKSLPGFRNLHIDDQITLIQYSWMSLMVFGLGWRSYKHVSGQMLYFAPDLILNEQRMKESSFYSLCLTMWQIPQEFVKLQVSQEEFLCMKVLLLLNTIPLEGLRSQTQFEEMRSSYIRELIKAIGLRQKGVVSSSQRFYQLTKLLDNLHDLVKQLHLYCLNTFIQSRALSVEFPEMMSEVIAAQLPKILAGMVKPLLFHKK
The test can be described thus: Progesterone receptor-antagonistic action in stably transfected SK-N-MC cells with MMTV-LUC reporter (PR-A). The class given is cell-based. As to conditions: antagonistic potency against 0.1 nmol/l promegestone, 24 hours, luciferase. As to the method:
as §1, §2

Each structure is given as a SMILES string.

The term IC50 denotes the concentration needed to halve the response being measured. Lower therefore signals higher potency. Take `C[C@]12C[C@H](c3ccc(/C=N/OCC(=O)O)cc3)C3=C4CCC(=O)C=C4CC[C@H]3[C@@H]1CC[C@@]2(O)C(F)(F)C(F)(F)F` [Example 34, [1-[4-((8S,11R,13S,14S,17S)-17-hydroxy-13-methyl-3-oxo-17-pentafluoroethyl-2,3,6,7,8,11,12,13,14,15,16,17-dodecahydro-1H-cyclopenta[a]phenanthren-11-yl)phenyl]meth-(E)-ylideneaminooxy]acetic acid]: the figures for the IC50 in test [1] and in test [2] were 2.8 nM and 3.9 nM, respectively.

On to `C[C@]12C[C@H](c3ccc(/C=C/CNC(=O)Nc4ccc(C(=O)O)cc4)cc3)C3=C4CCC(=O)C=C4CC[C@H]3[C@@H]1CC[C@@]2(O)C(F)(F)C(F)(F)F` [Example 56, 4-(3-{(E)-3-[4-((8S,11R,13S,14S,17S)-17-hydroxy-13-methyl-3-oxo-17-pentafluoroethyl-2,3,6,7,8,11,12,13,14,15,16,17-dodecahydro-1H-cyclopenta[a]phenanthren-11-yl)phenyl]allyl}ureido)benzoic acid], for which the values for the IC50 in test [1] and in test [2] were 1.9 nM and 0.9 nM, respectively.

For `C[C@]12C[C@H](c3ccc(/C=C/CNC(=O)Nc4ccc(F)cc4)cc3)C3=C4CCC(=O)C=C4CC[C@H]3[C@@H]1CC[C@@]2(O)C(F)(F)C(F)(F)F` [Example 44, 1-(4-fluorophenyl)-3-{(E)-3-[4-((8S,11R,13S,14S,17S)-17-hydroxy-13-methyl-3-oxo-17-pentafluoroethyl-2,3,6,7,8,11,12,13,14,15,16,17-dodecahydro-1H-cyclopenta[a]phenanthren-11-yl)phenyl]allyl}urea], the IC50 in test [1] and in test [2] was 0.1 nM in each case.

As to `Cc1nc2cc(/C=C/c3cccc([C@H]4C[C@@]5(C)[C@@H](CC[C@@]5(O)C(F)(F)C(F)(F)F)[C@@H]5CCC6=CC(=O)CCC6=C54)c3)ccc2s1` [Example 25, (8S,11R,13S,14S,17S)-17-hydroxy-13-methyl-11-{3-[(E)-2-(2-methylbenzothiazol-5-yl)vinyl]phenyl}-17-pentafluoroethyl-1,2,6,7,8,11,12,13,14,15,16,17-dodecahydrocyclopenta[a]phenanthren-3-one], the IC50 in test [1] was 2 nM; in test [2] it was 1 nM.

With `CCOC(=O)CCNC(=O)NC/C=C/c1ccc([C@H]2C[C@@]3(C)C(CC[C@@]3(O)C(F)(F)C(F)(F)F)C3CCC4=CC(=O)CCC4=C32)cc1` (stereo partly drawn) [Example 49, (3-{(E)-3-[4-((8S,11R,13S,14S,17S)-17-hydroxy-13-methyl-3-oxo-17-pentafluoroethyl-2,3,6,7,8,11,12,13,14,15,16,17-dodecahydro-1H-cyclopenta[a]phenanthren-11-yl)phenyl]allyl}ureido)propionic acid ethyl ester], the IC50 in test [1] was 0.3 nM; in test [2], 0.1 nM.

For the compound `C=C(C)c1cccc([C@H]2C[C@@]3(C)[C@@H](CC[C@@]3(O)C(F)(F)C(F)(F)F)[C@@H]3CCC4=CC(=O)CCC4=C32)c1` [Example 20, (8S,11R,13S,14S,17S)-17-hydroxy-11-(3-isopropenylphenyl)-13-methyl-17-pentafluoroethyl-1,2,6,7,8,11,12,13,14,15,16,17-dodecahydrocyclopenta[a]phenanthren-3-one], the half-inhibitory concentration (IC50) is 11 nM in test [1] and 9 nM in test [2].

Take `COC(=O)c1ccc(/C=C/c2ccc([C@H]3C[C@@]4(C)[C@@H](CC[C@@]4(O)C(F)(F)C(F)(F)F)[C@@H]4CCC5=CC(=O)CCC5=C43)cc2)cc1` [Example 31, 4-{(E)-2-[4-((8S,11R,13S,14S,17S)-17-hydroxy-13-methyl-3-oxo-17-pentafluoroethyl-2,3,6,7,8,11,12,13,14,15,16,17-dodecahydro-1H-cyclopenta[a]phenanthren-11-yl)phenyl]vinyl}benzoic acid methyl ester]: the results for the half-inhibitory concentration (IC50) in test [1] and in test [2] were 0.1 nM and 0.09 nM, respectively.
